Source: patent US5389644A, “1,4-dihydropyridine compounds” (priority 1992, dated 1995)

Assays:
Plasmodium falciparum = conditions: literature (Krogstad; Martin; Deloron); cited from earlier work
KB-A1 [1] = assay: Cytotoxicity: reversal of resistance to adriamycin (reversion factor), line KB-A1; assay type: cell-based, Human
Procedure: The parameter measured is the cytotoxicity of the antitumour drug, quantified in the absence and in the presence of the reversing compound. […] The compounds tested for their capacity to reverse the resistance are added at the same time as the cytotoxic agent. The cells are then incubated for 4 days.

KB-A1 [2] = assay: Flow cytometry: intracellular accumulation of ADR, line KB-A1; assay type: cell-based, Human; conditions: ADR 50 μM, 5 hours
Procedure: Also measured was the effect of the compounds on the intracellular concentration of adriamycin. […] By measuring that fluorescence, it is thus possible to obtain a relative measurement of the intracellular concentration of ADR. […] The cells (5×10^5 per ml) were exposed simultaneously to ADR at a fixed concentration (50 μM) and to the tested compounds at various concentrations. After 5 hours' incubation, the intracellular accumulation of ADR was evaluated by FCM. […] The results were presented in the form of linear histograms of the intracellular ADR fluorescence. Expression of the results: for each of the histograms the mean fluorescence per channel (MEAN) was determined by the computer of the apparatus. For all experiments: a negative control (cells without ADR) fixed the autofluorescence threshold. a positive control (cells with ADR) determined the MEAN value=MN1. the "test" tubes (cells with ADR and with compound) were used to determine, for each of the compounds and at each of the concentrations, the MEAN values=MN2. The results are expressed in the form of variations from the mean fluorescence obtained for each of the "test" tubes (MN2) in relation to the mean fluorescence obtained with the positive control (MN1): VAR-MEAN=MN2-MN1. The measured parameter is thus the increase in ADR fluorescence in the presence of the tested compounds.

DC-3F/AD = assay: Cytotoxicity: reversal of resistance to actinomycin D (reversion factor), line DC-3F/AD; assay type: cell-based, Chinese hamster
Procedure: The parameter measured is the cytotoxicity of the antitumour drug, quantified in the absence and in the presence of the reversing compound. Two resistant cell lines were used: 1 Chinese hamster lung line, DC-3F/AD, the resistance of which was induced by actinomycin D. […] The compounds tested for their capacity to reverse the resistance are added at the same time as the cytotoxic agent. The cells are then incubated for 4 days.

P 388/VCR = assay: In vivo increase in antitumour activity of vincristine, resistant line P 388/VCR; design: species or system murine leukaemia in female B6D2F1 mice
Text: This study was completed by an in vivo study, using a murine leukaemia resistant to vincristine (P 388/VCR) and using the compounds of the present invention in association with vincristine.
(§1) The sensitive parent line P 388 (murine leukaemia) and the sub-line resistant to vincristine, P 388/VCR, were supplied by NCI (Frederick, USA). The tumour cells (10^6 cells) were inoculated on day 0 into the indraperitoneal cavity of female B6D2F1 mice (Iffa Credo, France) weighing from 18 to 20 g (groups of 8 to 10 animals).
Every day for 4 days, starting from day 1, the animals received:
an administration of 25 to 150 mg/kg by i.p., p.o. or i.v. route of the compound of the present invention to be tested, as mentioned in the table 4a; then
(§2) 30 to 60 minutes later, an administration by the i.p. route of 0.25 mg/kg of vincristine (used as a reference antitumour agent).
(§3) The antitumour activity is expressed as follows: [formula]
(§4) The values are mean values obtained in independent experiments (# sem when n is greater than or equal to 3).

P 388 = assay: In vivo increase in antitumour activity of vincristine, sensitive line P388; design: species or system murine leukaemia in female B6D2F1 mice; conditions: compound 150 mg/kg p.o.
Procedure: as §1
Every day for 4 days, starting from day 1, the animals received: […]
as §2, §3, §4
Using the sensitive line (P388) the tested compounds of the invention increase considerably the sensitivity of the cells to vincristine.

calcium channel = target: T1, calcium channel (Sus scrofa, UniProt A0A8W4FNC0); assay: Affinity for the calcium channel labelled with [^3 ] PN 200110, aorta smooth muscle microsome preparations; assay type: binding; conditions: pig aorta smooth muscle microsomes; means of three independent experiments
T1 construct: pig aorta smooth muscle microsome preparations; from tissue; host or cells: pig aorta smooth muscle microsomes
Text: The results are expressed as IC50 (M) and represent means of three independent experiments.

[3] = with VCR […] i.p., compound 50 mg/kg i.p.
[4] = with VCR […] i.p., compound 150 mg/kg p.o.

T1 sequence (A0A8W4FNC0 1-2067): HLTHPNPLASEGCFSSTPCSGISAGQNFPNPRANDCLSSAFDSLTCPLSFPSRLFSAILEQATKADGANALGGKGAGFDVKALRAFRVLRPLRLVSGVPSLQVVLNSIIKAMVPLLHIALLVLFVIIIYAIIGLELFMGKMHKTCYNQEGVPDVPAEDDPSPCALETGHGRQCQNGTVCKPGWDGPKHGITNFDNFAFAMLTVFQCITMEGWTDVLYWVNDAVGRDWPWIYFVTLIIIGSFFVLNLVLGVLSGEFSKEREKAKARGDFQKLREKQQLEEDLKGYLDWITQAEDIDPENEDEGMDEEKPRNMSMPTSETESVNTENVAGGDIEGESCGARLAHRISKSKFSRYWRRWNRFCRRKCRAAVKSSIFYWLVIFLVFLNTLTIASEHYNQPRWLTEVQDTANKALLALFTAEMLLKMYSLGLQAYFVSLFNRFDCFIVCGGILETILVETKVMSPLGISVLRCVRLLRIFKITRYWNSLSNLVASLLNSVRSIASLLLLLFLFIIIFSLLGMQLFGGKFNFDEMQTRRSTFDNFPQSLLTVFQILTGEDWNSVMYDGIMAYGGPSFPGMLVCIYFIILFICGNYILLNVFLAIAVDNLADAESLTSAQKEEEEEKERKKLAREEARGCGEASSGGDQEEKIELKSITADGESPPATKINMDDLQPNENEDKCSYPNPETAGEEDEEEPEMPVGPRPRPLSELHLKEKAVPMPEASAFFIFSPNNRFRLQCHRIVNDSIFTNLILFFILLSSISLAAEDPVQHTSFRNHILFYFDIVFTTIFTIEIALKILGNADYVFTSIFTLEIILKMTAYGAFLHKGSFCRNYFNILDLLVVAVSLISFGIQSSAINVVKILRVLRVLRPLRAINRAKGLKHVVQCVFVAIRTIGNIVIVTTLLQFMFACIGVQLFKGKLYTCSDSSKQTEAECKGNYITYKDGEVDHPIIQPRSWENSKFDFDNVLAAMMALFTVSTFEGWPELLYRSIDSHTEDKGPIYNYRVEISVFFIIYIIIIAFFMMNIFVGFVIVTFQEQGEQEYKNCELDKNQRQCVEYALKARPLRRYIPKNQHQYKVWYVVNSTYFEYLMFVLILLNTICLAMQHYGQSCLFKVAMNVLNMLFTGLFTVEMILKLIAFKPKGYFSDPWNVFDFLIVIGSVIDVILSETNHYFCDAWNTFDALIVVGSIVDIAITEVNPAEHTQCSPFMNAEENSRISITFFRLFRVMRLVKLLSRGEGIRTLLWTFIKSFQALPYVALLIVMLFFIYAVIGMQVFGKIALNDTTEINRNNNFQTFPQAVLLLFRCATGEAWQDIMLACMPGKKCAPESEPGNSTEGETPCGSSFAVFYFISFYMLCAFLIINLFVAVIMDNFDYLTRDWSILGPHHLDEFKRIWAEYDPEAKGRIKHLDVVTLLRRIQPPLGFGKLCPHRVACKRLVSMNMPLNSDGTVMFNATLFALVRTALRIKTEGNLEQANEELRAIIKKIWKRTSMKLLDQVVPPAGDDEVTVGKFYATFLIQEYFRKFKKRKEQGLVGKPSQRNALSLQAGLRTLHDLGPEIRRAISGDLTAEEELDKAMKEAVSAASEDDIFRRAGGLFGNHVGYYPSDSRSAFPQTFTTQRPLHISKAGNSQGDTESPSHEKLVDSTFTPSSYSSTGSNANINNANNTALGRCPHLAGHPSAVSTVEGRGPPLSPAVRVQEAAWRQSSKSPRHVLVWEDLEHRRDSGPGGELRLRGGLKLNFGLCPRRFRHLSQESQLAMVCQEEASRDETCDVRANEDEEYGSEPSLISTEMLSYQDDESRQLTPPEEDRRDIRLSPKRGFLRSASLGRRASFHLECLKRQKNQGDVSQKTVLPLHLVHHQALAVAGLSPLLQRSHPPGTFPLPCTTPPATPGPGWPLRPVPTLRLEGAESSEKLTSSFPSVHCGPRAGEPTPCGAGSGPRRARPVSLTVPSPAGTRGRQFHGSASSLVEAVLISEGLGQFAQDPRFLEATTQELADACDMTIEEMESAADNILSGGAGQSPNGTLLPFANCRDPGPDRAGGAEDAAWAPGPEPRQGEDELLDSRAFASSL

Compound | sensitivity of a chloroquine-resistant line to chloroquine (Plasmodium falciparum) | reversion factor (RF) (KB-A1 [1]; compound 1 μM) | reversion factor (RF) (KB-A1 [1]; compound 5 μM) | increase in the ADR fluorescence (VAR-MEAN) (KB-A1 [2]; compound 1 μM) | increase in the ADR fluorescence (VAR-MEAN) (KB-A1 [2]; compound 5 μM) | increase in the ADR fluorescence (VAR-MEAN) (KB-A1 [2]; compound […]) | reversion factor (RF) (DC-3F/AD; compound 1 μM) | reversion factor (RF) (DC-3F/AD; compound 5 μM) | T/C (P 388/VCR; VCR 0, compound 50 mg/kg i.p.) [%] | T/C (P 388/VCR; VCR 0, compound 150 mg/kg p.o.) [%] | T/C (P 388/VCR; [3]) [%] | T/C (P 388/VCR; [4]) [%] | Survivors on day 60 (P 388; VCR 0) | T/C (P 388; VCR 0) [%] | Survivors on day 60 (P 388; with VCR […] i.p.) | T/C (P 388; with VCR […] i.p.) [%] | IC50 (calcium channel) [nM]
CCOC(=O)C1=C(COCCN)NC(C)=C(C(=O)OC)C1c1ccccc1Cl (centres unmarked) [AMLODIPINE, amlodipine, reference compound] | restores the sensitivity of a line resistant to chloroquine | 1.5 | 5.9 | 0.0 | 4.7 | 2.1 | 1.0 | 2.6 | – | – | – | – | – | – | – | – | –
CCOC(=O)C1=C(COCCOCCNCc2ccc([N+](=O)[O-])cc2)NC(C)=C(C(=O)OC)C1c1cccc(Cl)c1Cl (stereo not drawn) [Example 1, d-2-{[2-(2-(N-p-nitrobenzylamino)ethoxy)ethoxy]methyl}-4-(2,3-dichlorophenyl)-3-ethoxycarbonyl-5-methoxycarbonyl-6-methyl-1,4-dihydropyridine] | – | 32.1 | 640.5 | 5.5 | 45.7 | 26.1 | 21.0 | 2,613.2 | 107 | 99 | 171 | 185 | 0/8 | 99 | 4/8 | > 532 | 1600
CCOC(=O)C1=C(COCCOCCNCc2ccsc2)NC(C)=C(C(=O)OC)C1c1cccc(Cl)c1Cl (stereo not drawn) [Example 14, d-2-{[2-(2-(N-thien-3-ylmethylamino)ethoxy)ethoxy]methyl}-4-(2,3-dichlorophenyl)-3-ethoxycarbonyl-5-methoxycarbonyl-6-methyl-1,4-dihydropyridine] | – | 22.7 | 169.4 | 2.4 | 20.5 | 8.2 | 8.2 | 4,463.2 | 99 | 103 | 164 | 200 | – | 95 | 4/8 | > 587 | 1000
CCOC(=O)C1=C(COCCOCCNCc2ccnc3ccccc23)NC(C)=C(C(=O)OC)C1c1cccc(Cl)c1Cl (stereo not drawn) [Example 18, d-2-{[2-(2-(N-quinol-4-ylmethylamino)ethoxy)ethoxy]methyl}-4-(2,3-dichlorophenyl)-3-ethoxycarbonyl-5-methoxycarbonyl-6-methyl-1,4-dihydropyridine] | – | 4.3 | 348.2 | – | – | – | 3.3 | 5,018.4 | – | – | – | – | – | – | – | – | 1100
CCOC(=O)C1=C(COCCOCCNCc2nccc3ccccc23)NC(C)=C(C(=O)OC)C1c1cccc(Cl)c1Cl (stereo not drawn) [Example 19, d-2-{[2-(2-(N-isoquinol-1-ylmethylamino)ethoxy)ethoxy]methyl}-4-(2,3-dichlorophenyl)-3-ethoxycarbonyl-5-methoxycarbonyl-6-methyl-1,4-dihydropyridine] | – | 3.6 | 140.5 | 9.4 | 34.7 | 15.7 | 1.5 | 1,701.7 | – | – | – | – | – | – | – | – | 3200
CCOC(=O)C1=C(COCCOCCNCc2cnc3ccccc3c2)NC(C)=C(C(=O)OC)C1c1cccc(Cl)c1Cl (stereo not drawn) [Example 23, d-2-{[2-(2-[N-(quinol-3-yl)methylamino]ethoxy)ethoxy]methyl}-4-(2,3-dichlorophenyl)-3-ethoxycarbonyl-5-methoxycarbonyl-6-methyl-1,4-dihydropyridine] | – | 19.6 | 1,035.8 | – | – | – | 10.2 | 2,304.0 | – | – | – | – | – | – | – | – | 2000
COc1ccc(CCN(C)CCCC(C#N)(c2ccc(OC)c(OC)c2)C(C)C)cc1OC (centres unmarked) [verapamil, reference compound] | restores the sensitivity of a line resistant to chloroquine | 4.6 | 26.0 | 3.7 | 12.2 | 8.6 | 1.0 | 3.1 | – | – | – | – | – | – | – | – | –
